Experimental data reported in patent publication US20250026724A1, “(1,4,5-TRISUBSTITUTED 1H-PYRAZOL-3-YL)OXY-2-ALKYLTHIOALKYL ACIDS AND -ALKYL ACID DERIVATIVES, SALTS THEREOF AND USE THEREOF AS ACTIVE HERBICIDAL INGREDIENTS” (BAYER AKTIENGESELLSCHAFT, priority 2021, published 2025).

Assays:
Type in all cases: in vivo
[1] = system: Zea mays (ZEAMX); experiment: Post-emergence crop plant compatibility, greenhouse pot trial; details: 20 g/ha, in comparison to untreated controls
Method: Seeds of monocotyledonous and dicotyledonous weeds and crop plants are placed in sandy loam in plastic or organic planting pots, covered with soil and cultivated in a greenhouse under controlled growth conditions. 2 to 3 weeks after sowing, the trial plants are treated at the one-leaf stage. The compounds of the invention, formulated in the form of wettable powders (WP) or as emulsion concentrates (EC), are then sprayed onto the green parts of the plants as aqueous suspension or emulsion with addition of 0.5% additive at a water application rate equivalent to 600 l/ha. After about 3 weeks of keeping the trial plants in the greenhouse under optimum growth conditions, the effect of the preparations is rated visually in comparison to untreated controls. For example, 100% activity=the plants have died, 0% activity=like control plants.
The observed effects on selected crop plants are reported here in comparison to the untreated controls (values in %). The appendices “a”, “b” and “c” give differentiation by dosage used with otherwise the same useful plants tested.
As shown by results from Tables B1 to B19, inventive compounds of the general formula (I) in the case of post-emergence treatment have good herbicidal efficacy against harmful plants, for example Abutilon theophrasti (ABUTH), Alopecurus myosuroides (ALOMY), Amaranthus retroflexus (AMARE), Avena fatua (AVEFA), Digitaria sanguinalis (DIGSA), Echinochloa crus-galli (ECHCG), Bassia scoparia (KCHSC), Lolium rigidum (LOLRI), Matricaria inodora (MATIN), Pharbitis purpurea (PHBPU), Polygonum convolvulus (POLCO), Setaria viridis (SETVI), Veronica persica (VERPE) and Viola tricolor (VIOTR) at an application rate of 320 g of active substance or less per hectare, and good crop plant compatibility in the case of organisms such as Oryza sativa (ORYSA), Zea mays (ZEAMX), Brassica napus (BRSNW), Glycine max (GLXMA) and Triticum aestivum (TRZAS) at an application rate of 320 g or less per hectare.

[2] = system: Alopecurus myosuroides (ALOMY); experiment: Post-emergence herbicidal action, greenhouse pot trial; details: visual rating after about 3 weeks
Method in brief: (§1)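 Activity scored visually roughly 3 weeks post-spray on a 0–100% scale against untreated plants, 100% meaning death. Treatment was post-emergence at one-leaf stage, aqueous spray of WP/EC formulation with 0.5% additive at 600 l/ha water, ≤320 g/ha. Plants grown in sandy loam under greenhouse conditions.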

[3] = system: Digitaria sanguinalis (DIGSA); experiment: as above; details: visual rating after about 3 weeks; for pest or weed control at 320 g/ha: Digitaria sanguinalis, 504 h, read-out: Post-emergence effect at 320 g/ha against DIGSA in %
Method in brief: as §1

[4] = system: Polygonum convolvulus (POLCO); experiment: as above; details: visual rating after about 3 weeks; for pest or weed control at 80 g/ha / pest or weed control at 320 g/ha: Fallopia convolvulus, 504 h; for pest or weed control at 80 g/ha: read-out: Post-emergence effect at 80 g/ha against POLCO in %; for pest or weed control at 320 g/ha: read-out: Post-emergence effect at 320 g/ha against POLCO in %
Method in brief: as §1

[5] = system: Viola tricolor (VIOTR); experiment: as above; details: for pest or weed control at 20 g/ha / pest or weed control at 80 g/ha / pest or weed control at 320 g/ha: Viola tricolor, 504 h, read-out: Post-emergence effect against VIOTR
Method in brief: as §1

[6] = system: Avena fatua (AVEFA); experiment: as above; details: visual rating after about 3 weeks; for pest or weed control at 320 g/ha: Avena fatua, 504 h, read-out: Post-emergence effect at 320 g/ha against AVEFA in %
Method in brief: as §1

[7] = system: Lolium rigidum (LOLRI); experiment: as above; details: visual rating after about 3 weeks; for pest or weed control at 320 g/ha: Lolium rigidum, 504 h, read-out: Post-emergence effect at 320 g/ha against LOLRI in %
Method in brief: as §1

[8] = system: Pharbitis purpurea (PHBPU); experiment: as above; details: visual rating after about 3 weeks; for pest or weed control at 320 g/ha: read-out: Post-emergence effect at 320 g/ha against PHBPU in %
Method in brief: as §1

[9] = system: Amaranthus retroflexus (AMARE); experiment: as above; details: visual rating after about 3 weeks; for pest or weed control at 80 g/ha / pest or weed control at 320 g/ha: Amaranthus retroflexus, 504 h; for pest or weed control at 80 g/ha: read-out: Post-emergence effect at 80 g/ha against AMARE in %; for pest or weed control at 320 g/ha: read-out: Post-emergence effect at 320 g/ha against AMARE in %
Method in brief: as §1

[10] = system: Setaria viridis (SETVI); experiment: as above; details: 320 g/ha, visual rating after about 3 weeks; for pest or weed control at 320 g/ha: Setaria viridis, 504 h, read-out: Post-emergence effect at 320 g/ha against SETVI in %
Method in brief: as §1

[11] = system: Echinochloa crus-galli (ECHCG); experiment: as above; details: visual rating after about 3 weeks; for pest or weed control at 320 g/ha: Echinochloa crus-galli, 504 h, read-out: Post-emergence effect at 320 g/ha against ECHCG in %
Method in brief: as §1

[12] = system: Abutilon theophrasti (ABUTH); experiment: as above; details: visual rating after about 3 weeks; for pest or weed control at 80 g/ha / pest or weed control at 320 g/ha: Abutilon theophrasti, 504 h; for pest or weed control at 80 g/ha: read-out: Post-emergence effect at 80 g/ha against ABUTH in %; for pest or weed control at 320 g/ha: read-out: Post-emergence effect at 320 g/ha against ABUTH in %
Method in brief: as §1

[13] = system: Matricaria inodora (MATIN); experiment: as above; details: visual rating after about 3 weeks; for pest or weed control at 80 g/ha / pest or weed control at 320 g/ha: Tripleurospermum inodorum, 504 h; for pest or weed control at 80 g/ha: read-out: Post-emergence effect at 80 g/ha against MATIN in %; for pest or weed control at 320 g/ha: read-out: Post-emergence effect at 320 g/ha against MATIN in %
Method in brief: as §1

[14] = system: Veronica persica (VERPE); experiment: as above; details: visual rating after about 3 weeks; for pest or weed control at 320 g/ha: Veronica persica, 504 h, read-out: Post-emergence effect at 320 g/ha against VERPE in %
Method in brief: as §1

[15] = system: Bassia scoparia (KCHSC); experiment: as above; details: for pest or weed control at 80 g/ha / pest or weed control at 320 g/ha: Bassia scoparia, 504 h, read-out: Post-emergence effect against KCHSC
Method in brief: as §1

[16] = Ipomoea purpurea, 504 h, 320 g/ha

Row | SMILES | Post-emergence effect at 320 g/ha against ALOMY in % ([2]; 320 g/ha) | Post-emergence effect at 80 g/ha against DIGSA in % [3] | Post-emergence effect at 320 g/ha against DIGSA in % [3] | pest or weed control at 320 g/ha ([6]; 320 g/ha) | pest or weed control at 320 g/ha [14] | pest or weed control at 320 g/ha [15] | pest or weed control at 80 g/ha ([4]; 80 g/ha) | pest or weed control at 320 g/ha ([4]; 320 g/ha) | pest or weed control at 20 g/ha [5] | pest or weed control at 80 g/ha ([5]; 80 g/ha) | pest or weed control at 320 g/ha ([5]; 320 g/ha) | pest or weed control at 320 g/ha [8, 16] | pest or weed control at 80 g/ha [9] | pest or weed control at 320 g/ha ([9]; 320 g/ha) | pest or weed control at 320 g/ha [10] | pest or weed control at 320 g/ha [11] | pest or weed control at 80 g/ha ([12]; 80 g/ha) | pest or weed control at 320 g/ha ([12]; 320 g/ha) | pest or weed control at 80 g/ha ([13]; 80 g/ha) | pest or weed control at 320 g/ha ([13]; 320 g/ha) | also measured
1 | COC(=O)CCOC(=O)C(Oc1nn(-c2ncccc2F)c(-c2ccc(F)nc2)c1Br)SC (single isomer, unassigned) [Example I-23] | 80% | 90% | 90% | – | – | – | – | – | – | – | – | – | – | – | – | – | – | – | – | – | Post-emergence effect against ZEAMX (crop plant compatibility) [1]: 0%; Post-emergence effect at 80 g/ha against POLCO in % ([4]; 80 g/ha): 80%; Post-emergence effect at 320 g/ha against POLCO in % ([4]; 320 g/ha): 90%; Post-emergence effect against VIOTR ([5]; 80 g/ha): 80%; Post-emergence effect against VIOTR ([5]; 320 g/ha): 90%; Post-emergence effect at 320 g/ha against AVEFA in % ([6]; 320 g/ha): 80%; Post-emergence effect at 320 g/ha against LOLRI in % [7]: 90%; Post-emergence effect at 80 g/ha against PHBPU in % ([8]; 80 g/ha): 80%; Post-emergence effect at 320 g/ha against PHBPU in % ([8]; 320 g/ha): 90%; Post-emergence effect at 320 g/ha against AMARE in % ([9]; 320 g/ha): 80%; Post-emergence effect at 320 g/ha against SETVI in % [10]: 90%; Post-emergence effect at 80 g/ha against ECHCG in % [11]: 90%; Post-emergence effect at 320 g/ha against ECHCG in % [11]: 90%; Post-emergence effect at 80 g/ha against ABUTH in % ([12]; 80 g/ha): 80%; Post-emergence effect at 320 g/ha against ABUTH in % ([12]; 320 g/ha): 90%; Post-emergence effect at 80 g/ha against MATIN in % ([13]; 80 g/ha): 80%; Post-emergence effect at 320 g/ha against MATIN in % ([13]; 320 g/ha): 90%
2 | CCOC(=O)C(Oc1nn(-c2ccccc2F)c(-c2ccc(F)nc2)c1Br)SC (single isomer, unassigned) [Example I-40] | 80% | 90% | 90% | 90% | 80% | 90% | – | – | – | – | – | – | – | – | – | – | – | – | – | – | Post-emergence effect at 20 g/ha against ALOMY in % ([2]; 20 g/ha): 80%; Post-emergence effect at 80 g/ha against ALOMY in % ([2]; 80 g/ha): 80%; Post-emergence action at 20 g/ha against DIGSA in % ([3]; 20 g/ha): 90%; Post-emergence effect against VIOTR ([5]; 320 g/ha): 80%; Post-emergence effect at 20 g/ha against AVEFA in % ([6]; 20 g/ha): 80%; Post-emergence effect at 80 g/ha against AVEFA in % ([6]; 80 g/ha): 90%; Post-emergence effect at 20 g/ha against LOLRI in % ([7]; 20 g/ha): 80%; Post-emergence effect at 80 g/ha against LOLRI in % ([7]; 80 g/ha): 80%; Post-emergence effect at 320 g/ha against LOLRI in % [7]: 90%; Post-emergence effect at 20 g/ha against ECHCG in % ([11]; 20 g/ha): 80%; Post-emergence effect at 80 g/ha against ECHCG in % [11]: 80%; Post-emergence effect at 320 g/ha against ECHCG in % [11]: 90%; Post-emergence effect at 20 g/ha against VERPE in % ([14]; 20 g/ha): 80%; Post-emergence effect at 80 g/ha against VERPE in % [14]: 80%; Post-emergence effect at 20 g/ha against KCHSC in % ([15]; 20 g/ha, visual rating after about 3 weeks): 80%; pest or weed control at 80 g/ha [15]: 90%
3 | CCOC(=O)C(Oc1nn(-c2ncccc2F)c(-c2cncc(F)c2)c1C1CC1)SC (stereo not drawn) [Example I-41] | – | – | – | 100% | 80% | 90% | 80% | 90% | 90% | 90% | 90% | 80% | 90% | 90% | 90% | 90% | 90% | 90% | 80% | 90% | pest or weed control at 320 g/ha ([2]; Alopecurus myosuroides, 504 h, 320 g/ha, read-out: Post-emergence effect at 320 g/ha against ALOMY in %): 80%; Post-emergence effect at 20 g/ha against AMARE in % ([9]; 20 g/ha): 80%; Post-emergence action at 20 g/ha against ABUTH in % ([12]; 20 g/ha): 80%
4 | CSC(Oc1nn(-c2ncccc2F)c(-c2cncc(F)c2)c1Br)C(=O)O (stereo not drawn) [Example I-42] | – | 80% | – | 100% | 80% | 90% | 80% | 90% | 90% | 90% | 90% | 90% | 90% | 90% | 90% | 90% | 80% | 90% | 80% | 90% | pest or weed control at 320 g/ha [3]: 90%; pest or weed control at 320 g/ha [7]: 90%; Post-emergence effect at 20 g/ha against PHBPU in % ([8]; 20 g/ha): 80%; pest or weed control at 80 g/ha ([8]; Ipomoea purpurea, 504 h, 80 g/ha, read-out: Post-emergence effect at 80 g/ha against PHBPU in %): 80%; pest or weed control at 80 g/ha [15]: 90%
5 | COC(=O)C(Oc1nn(-c2ncccc2F)c(-c2cncc(F)c2)c1C1CC1)SC (stereo not drawn) [Example I-66] | – | – | – | 80% | 90% | 90% | 80% | 80% | 90% | 90% | 90% | 90% | 90% | 90% | 80% | 90% | 80% | 90% | 80% | 90% | pest or weed control at 320 g/ha [3]: 80%; pest or weed control at 320 g/ha [7]: 90%; Post-emergence effect at 80 g/ha against VERPE in % [14]: 90%
